Data reported in ChEMBL document CHEMBL4414647, “Austalides, Osteoclast Differentiation Inhibitors from a Marine-Derived Strain of the Fungus Penicillium rudallense” (J Nat Prod, 2019).
pEC50: −log10 of the molar value. Active and inactive are the calls of the source. The rule behind the calls is not given here.

Tests used:
[1] = Inhibition of RANKL-induced osteoclast differentiation in ICR mouse bone marrow macrophage assessed as reduction in multinucleated TRAP+ cells preincubated for 3 days for RANKL stimulation followed by compound addition and measured after 1 day by TRAP staining based microscopy; type: functional; details: BMDM, read-out: ED50 (the source's name)
[2] = system: BMDM; test: Cytotoxicity against ICR mouse bone marrow macrophage assessed as reduction in cell viability at 1 to 10 uM incubated for 3 days by WST-8 assay; type: cell-based; details: 72 h
[3] = system: BMDM; test: Cytotoxicity against ICR mouse bone marrow macrophage assessed as reduction in cell viability at 10 uM incubated for 3 days by WST-8 assay; type: cell-based; details: 72 h
[4] = system: BMDM; test: Inhibition of RANKL-induced osteoclast differentiation in ICR mouse bone marrow macrophage assessed as reduction in multinucleated TRAP+ cells at 10 uM preincubated for 3 days for RANKL stimulation followed by compound addition and measured after 1 day by TRAP staining based microscopy; type: functional, cell-based

| SMILES | pEC50 [1] | Activity [2] | Activity [3] | inhibition [4] |
| --- | --- | --- | --- | --- |
| COc1c2c(c(C)c3c1C(=O)OC3)O[C@@]1(C)CC[C@H]3C(C)(C)OC(=O)CC[C@]3(C)[C@H]1C2 | 5.55 to 5.72 | Non-Toxic | – | – |
| Cc1c2c(c(O)c3c1O[C@@]1(C)CC[C@H]4C(C)(C)C(=O)CC[C@]4(C)[C@H]1C3)C(=O)OC2 | 5.55 to 5.72 | – | Toxic | – |
| C=C(C)[C@@H]1CC[C@]2(C)Oc3c(C)c4c(c(OC)c3C[C@@H]2[C@@]1(C)CCC(=O)OC)C(=O)OC4 | – | – | – | inactive |
| C=C(C)[C@@H]1[C@H](O)C[C@]2(C)Oc3c(C)c4c(c(OC)c3C[C@@H]2[C@@]1(C)CCC(=O)OC)C(=O)OC4 | – | – | – | inactive |
| C/C(=C\Cc1c(O)c(C)c2c(c1O)C(=O)OC2)CC/C=C(\C)CCCC(C)(C)O | – | – | – | inactive |
| COc1c2c(c(C)c3c1C(=O)OC3)O[C@@]1(C)CC[C@@H](C(C)(C)O)[C@](C)(CCC(=O)O)[C@H]1C2 | – | – | – | inactive |
| COc1c2c(c(C)c3c1C(=O)OC3)O[C@@]1(C)CC[C@H]3C(C)(C)[C@@H](O)CC[C@]3(C)[C@H]1C2 | 5.55 to 5.72 | Non-Toxic | – | – |
| COC(=O)CC[C@]1(C)[C@H]2Cc3c(c(C)c4c(c3OC)C(=O)OC4)O[C@@]2(C)C[C@@H](O)[C@H]1C(C)(C)O | – | – | – | inactive |
| COc1c2c(c(C)c3c1C(=O)OC3)O[C@@]1(C)C[C@@H](O)[C@H]3C(C)(C)C(=O)CC[C@]3(C)[C@H]1C2 | 5.55 to 5.72 | Non-Toxic | – | – |
| COC(=O)CC[C@]1(C)[C@H]2Cc3c(c(C)c4c(c3OC)C(=O)OC4)O[C@@]2(C)CC[C@H]1C(C)(C)O | 5.55 to 5.72 | Non-Toxic | – | – |
| CC(C)=CCC/C(C)=C/CC/C(C)=C/Cc1c(O)c(C)c2c(c1O)C(=O)OC2 | – | – | – | inactive |
| COc1c2c(c(C)c3c1C(=O)OC3)O[C@@]1(C)CC[C@@]3(O)C(C)(C)C(=O)CC[C@]3(C)[C@H]1C2 | 5.55 to 5.72 | Non-Toxic | – | – |
